Assay results taken from patent publication US20230295068A1, “NOVEL CYCLOALKENONE COMPOUND OR SALT THEREOF” (TAIHO PHARMACEUTICAL CO., LTD., priority 2020, published 2023).

System: ND3 neuronal cell line
Assay: Measurement of nerve growth stimulation effect (neurite bearing assay, neurite length assay, number of cells)
Format: cell-based
Details: relative cell number, DMSO well = 1; for viability at 1 µM / viability at 3 µM / viability at 5 µM / viability at 10 µM / viability at 30 µM / viability at 100 µM: 6 hours; for Number of cells: ND3 cells, 6 h
Procedure: To evaluate the nerve growth stimulation effect, neurite bearing assay (proportion of neurite-bearing cells) and neurite length assay (neurite length) were analyzed with reference to the method of Topalli et al. (Brain Research 1030 (2004), pp. 116-124).
An ND3 neuronal cell line (European Collection of Authenticated Cell Cultures) was seeded in a DMEM medium containing 10% fetal bovine serum (0.6×10^4 cells/1 mL) in a 24-well plate. 24 hours later, the medium of seeded cells was removed, and a solution in which the compound of the present disclosure that was sequentially diluted in dimethyl sulfoxide (DMSO) was adjusted in DIEM containing 0.1% bovine serum albumin so that the DMSO final concentration was 0.1%, was added to cells (evaluation performed in duplicate). After six hours from the addition, the proportion of neurite-bearing cells (the number of cells having a neurite longer than the diameter of the cell body/number of total cells), and the neurite length per cell were analyzed. The number of total cells, proportion of neurite-bearing cells, and neurite length per cell were analyzed using a MetaMorph Neurite Outgrowth Application Module (Molecular Devices Japan K.K.). The number of cells was defined as the relative cell number, taking the number of cells per well containing DMSO as 1. The relative activity of each compound when the maximum activity of 3-(15-methoxypentadecyl)-2,4,4-trimethylcyclohexa-2-en-1-one (compound 24) in each test was defined as 1 is shown (Table 9). For the compounds for which multiple tests were conducted, the average value was shown. Data with a number of cells of 0.5 or more was also used. Accordingly, if the number of cells was less than 0.5, the neurite length per cell and the proportion of neurite-bearing cells were defined as “-”.

CC1=C(CCCCCCCCCCCCCCCO)CCCC1=O [Compound 7, 3-(15-hydroxypentadecyl)-2-methylcyclohex-2-en-1-one, reference compound]
viability at 1 µM: 100%
viability at 3 µM: 100%
viability at 5 µM: 87%
viability at 10 µM: 86%
viability at 30 µM: 17%
viability at 100 µM: 19%

COCCCCCCCCCCCCCCCC1=C(C)C(=O)CCC12CC2 [Compound 44, 4-(15-methoxypentadecyl)-5-methylspiro[2,5]oct-4-en-6-one]
viability at 1 µM: 83%
viability at 3 µM: 90%
viability at 5 µM: 82%
viability at 10 µM: 75%
viability at 30 µM: 91%
viability at 100 µM: 89%

COCCCCCCCCCCCCC1=C(C)C(=O)CCC1(C)C [Compound 11, 3-(12-methoxydodecyl)-2,4,4-trimethylcyclohex-2-en-1-one]
viability at 1 µM: 96%
viability at 3 µM: 96%
viability at 5 µM: 83%
viability at 10 µM: 82%
viability at 30 µM: 62%
viability at 100 µM: 70%

CCOCCCCCCCCCCCCCCCCC1=C(C)C(=O)CCC1(C)C [Compound 30, 3-(16-ethoxyhexadecyl)-2,4,4-trimethylcyclohex-2-en-1-one]
viability at 1 µM: 88%
viability at 3 µM: 91%
viability at 5 µM: 83%
viability at 10 µM: 87%
viability at 30 µM: 95%
viability at 100 µM: 98%

CCOCCCCCCCCCCCCCCC1=C(C)C(=O)CCC1(C)C [Compound 22, 3-(14-ethoxytetradecyl)-2,4,4-trimethylcyclohex-2-en-1-one]
viability at 1 µM: 114%
viability at 3 µM: 103%
viability at 5 µM: 94%
viability at 10 µM: 103%
viability at 30 µM: 99%
viability at 100 µM: 97%

COCCCCCCCCCCCCCCCC1=C(C(C)C)C(=O)CCC1(C)C [Compound 62, 2-isopropyl-3-(15-methoxypentadecyl)-4,4-dimethylcyclohex-2-en-1-one]
Number of cells (1 μM compound): 0.92
Number of cells (3 μM compound): 0.89
Number of cells (5 μM compound): 0.83
Number of cells (10 μM compound): 0.78
Number of cells (30 μM compound): 0.91
Number of cells (100 μM compound): 0.91

CC1=C(CCCCCCCCCCCCCCCOCc2ccccc2)C(C)(C)CCC1=O [Compound 52, 3-(15-(benzyloxy)pentadecyl)-2,4,4-trimethylcyclohex-2-en-1-one]
viability at 1 µM: 105%
viability at 3 µM: 100%
viability at 5 µM: 95%
viability at 10 µM: 96%
viability at 30 µM: 90%
viability at 100 µM: 96%

CNC(=O)CCCCCCCCCCCCCCC1=C(C)C(=O)CCC1(C)C [Compound 33, N-methyl-15-(2,6,6-trimethyl-3-oxocyclohex-1-en-1-yl)pentadecanamide]
viability at 1 µM: 92%
viability at 3 µM: 90%
viability at 5 µM: 83%
viability at 10 µM: 86%
viability at 30 µM: 91%
viability at 100 µM: 80%

COCCCCCCCCCCCCCCCC1=C(C)C(=O)C(C)C1C (stereo not drawn) [Compound 46, 3-(15-methoxypentadecyl)-2,4,5-trimethylcyclopent-2-en-1-one]
viability at 1 µM: 94%
viability at 3 µM: 99%
viability at 5 µM: 83%
viability at 10 µM: 78%
viability at 30 µM: 102%
viability at 100 µM: 98%

COC(C)(C)CCCCCCCCCCCCCCC1=C(C)C(O)CCC1(C)C (stereo not drawn) [Compound 47, 3-(15-methoxy-15-methylhexadecyl)-2,4,4-trimethylcyclohex-2-en-1-ol]
viability at 1 µM: 98%
viability at 3 µM: 91%
viability at 5 µM: 85%
viability at 10 µM: 89%
viability at 30 µM: 88%
viability at 100 µM: 87%

COCCCCCCCCCCCCCCCC1=C(I)C(=O)CCC1(C)C [Compound 40, 2-iodo-3-(15-methoxypentadecyl)-4,4-dimethylcyclohex-2-en-1-one]
viability at 1 µM: 94%
viability at 3 µM: 104%
viability at 5 µM: 97%
viability at 10 µM: 93%
viability at 30 µM: 103%
viability at 100 µM: 98%
